Laboratory results reported in ChEMBL document CHEMBL3046183, “2,4,6-Trihydroxybenzaldehyde as a potent antidiabetic agent alleviates postprandial hyperglycemia in normal and diabetic rats” (Med Chem Res, 2011).
Activity calls are given as the source filed them. The rule behind the calls is not given here.

Key:
[1] = Inhibition of alpha-glucosidase (unknown origin) using PNPG as substrate assessed as p-nitrophenol release from substrate after 30 min; parameters: species or system Homo sapiens
Rattus norvegicus [2] = test: Antidiabetic activity in maltose loaded Rattus norvegicus Sprague-Dawley (rat) streptozotocin-induced diabetic model assessed as reduction of blood glucose level at 20 mg/kg administered intragastrically immediately after maltose load after 2 hr; format: functional, organism-based; parameters: dose 20 mg/kg
Rattus norvegicus [3] = test: Antihyperglycemic activity in maltose treated Rattus norvegicus Sprague-Dawley (rat) assessed as reduction of postprandial blood glucose level at 20 mg/kg administered intragastrically immediately after maltose load after 2 hr; format: functional, organism-based; parameters: dose 20 mg/kg
Rattus norvegicus [4] = test: Antidiabetic activity in Rattus norvegicus Sprague-Dawley (rat) streptozotocin-induced diabetic model assessed as reduction of blood glucose level at 20 mg/kg administered intragastrically after 30 min (reference value: 378.2 to 594.7 mg/dl); format: functional; details: route intragastric
[5] = system: Radical scavenging activity; test: Antioxidant activity assessed as DPPH radical scavenging activity after 30 min; format: functional
Rattus norvegicus [6] = test: Antihyperglycemic activity in glucose treated Rattus norvegicus Sprague-Dawley (rat) assessed as reduction of postprandial blood glucose level at 20 mg/kg administered intragastrically immediately after glucose load after 30 min (reference value: 95.7 to 182.3 mg/dl); format: functional; details: route intragastric
Homo sapiens = species on record: Homo sapiens; test: Noncompetitive inhibition of alpha-glucosidase (unknown origin) using PNPG as substrate by Lineweaver-Burk plot analysis
Rattus norvegicus [7] = test: Antihyperglycemic activity in glucose treated Rattus norvegicus Sprague-Dawley (rat) assessed as reduction of postprandial blood glucose level at 50 mg/kg administered intragastrically immediately after glucose load after 30 min (reference value: 95.7 to 182.3 mg/dl); format: functional; details: route intragastric
Rattus norvegicus [8] = test: Antidiabetic activity in Rattus norvegicus Sprague-Dawley (rat) streptozotocin-induced diabetic model assessed as reduction of blood glucose level at 50 mg/kg administered intragastrically after 30 min (reference value: 378.2 to 594.7 mg/dl); format: functional; details: route intragastric
Rattus norvegicus [9] = test: Antidiabetic activity in maltose loaded Rattus norvegicus Sprague-Dawley (rat) streptozotocin-induced diabetic model assessed as reduction of blood glucose level at 50 mg/kg administered intragastrically immediately after maltose load after 2 hr; format: functional, organism-based; parameters: dose 50 mg/kg
Rattus norvegicus [10] = test: Antihyperglycemic activity in maltose treated Rattus norvegicus Sprague-Dawley (rat) assessed as reduction of postprandial blood glucose level at 50 mg/kg administered intragastrically immediately after maltose load after 2 hr; format: functional, organism-based; parameters: dose 50 mg/kg

O=C(OC[C@H]1O[C@@H](OC(=O)c2cc(O)c(O)c(O)c2)[C@H](OC(=O)c2cc(O)c(O)c(O)c2)[C@@H](OC(=O)c2cc(O)c(O)c(O)c2)[C@@H]1OC(=O)c1cc(O)c(O)c(O)c1)c1cc(O)c(O)c(O)c1 [PENTAGALLOYL GLUCOSE]
IC50 [1]: 0.39 µM

O=C(O)c1cc(O)c(O)c(O)c1 [GALLIC ACID]
IC50 [1]: 112 µM

O=Cc1c(O)cc(O)cc1O [PHLOROGLUCINALDEHYDE]
Activity (Rattus norvegicus [2]): inactive
IC50 [1]: 4.6 µM
Activity (Rattus norvegicus [3]): inactive
Activity (Rattus norvegicus [4]): 367.9 mg/dL
IC50 [5]: 71.4 µM
Activity (Rattus norvegicus [6]): 96.5 mg/dL
inhibition (Homo sapiens): Active

COc1cc(OC)c(C=O)c(OC)c1 [2,4,6-TRIMETHOXYBENZALDEHYDE]
IC50 [1]: 2380 µM

C[C@H]1O[C@H](O[C@H]2[C@H](O)[C@@H](O)[C@@H](O[C@H]3[C@H](O)[C@@H](O)C(O)O[C@@H]3CO)O[C@@H]2CO)[C@H](O)[C@@H](O)[C@@H]1N[C@H]1C=C(CO)[C@@H](O)[C@H](O)[C@H]1O (some centres undefined) [ACARBOSE]
Activity (Rattus norvegicus [7]): 97.5 mg/dL
Activity (Rattus norvegicus [8]): 372.1 mg/dL
Activity (Rattus norvegicus [9]): Active
Activity (Rattus norvegicus [10]): Active
